Read-outs that look alike come from different tables or passages of the source.

Here are results for 3 compounds from patent publication US20050215548A1 (Cyclacel Limited, priority 2002, published 2005).

Assay [1] relates to E2F transcription factors. In words: E2F reporter gene assay (A549-derived luciferase reporter cell line). The settings on record: Homo sapiens. The class given is cell-based. The method in brief:
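A549-derived cell line stably carrying an E2F response element driving a luciferase reporter gene (Mercury Cell Cycle Profiling System cassette). Run the same way as the p53 reporter assay, with luciferase read-out.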
In general terms: Reporter assays use an easily measured gene product as a stand-in for the process of interest.

In assay [2] the test system is H1299. In words: 72-h MTT cytotoxicity assay, H1299. The class given is cell-based. The settings on record: Homo sapiens. The procedure, abridged:
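Human tumour cells; SJSA-1 = bone sarcoma, wt p53, HDM2 overexpressed. H1299 = large cell lung ca., p53-null, low HDM2. AGS = gastric adenocarcinoma, wt p53. Endpoint: anti-proliferative potency.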
(Tetrazolium dyes change colour on reduction, which living cells bring about.)

The subject of assay [3] is non-transformed human cell lines. In words: 72-h MTT panel, average non-transformed. The settings on record: average over non-transformed cell lines, read-out: Anti-proliferative activity, 72-h MTT IC50, Average non-transformed. The class given is cell-based. How it is done: (§1) Representative bisarylsulfonamide compounds were tested on a panel of transformed and non-transformed human cell lines, using a standard 72-h MTT cytotoxicity assay [Haselsberger K et al, ibid].
(§2) This differential selectivity further supports the notion that the bisarylsulfonamides modulate cellular HDM2 function. It is known that HDM2 amplification is particularly common in soft tissue sarcomas and osteosarcomas [Momand J et al, ibid; Bartel F, Meye A, Wurl P, Kappler M, Bache M, Lautenschlager C, Grunbaum U, Schmidt H, Taubert H; Int. J. Cancer 2001; 95: 168-175].

The test system of assay [4] is transformed human cell lines. In words: 72-h MTT panel, average transformed. The settings on record: average over transformed cell lines, read-out: Anti-proliferative activity, 72-h MTT IC50, Average transformed. The class given is cell-based. On the procedure:
as §1, §2

The subject of a further assay is SK-N-MC. In words: 72-h MTT cytotoxicity assay, SK-N-MC. The class given is cell-based. The settings on record: Homo sapiens, Neuriepithelioma, read-out: Anti-proliferative activity, 72-h MTT IC50. How it is done: as §1
The subject of another assay is NaCat. In words: 72-h MTT cytotoxicity assay, NaCat. The class given is cell-based. The settings on record: Keratinocyte, Human keratinocytes, read-out: Anti-proliferative activity, 72-h MTT IC50. How it is done: as §1
The test system of a further assay is MCF7 or H1299 cells. In words: Cell cycle distribution, propidium iodide flow cytometry. It counts as cell-based, human. The conditions noted are these: 5 times IC50. On the procedure:
Cells were stained with propidium iodide and the cell cycle position was determined using a flow cytometer.
Background: A flow cytometer gives signals particle by particle.

The subject of assay [5] is H1299. In words: Combination treatment with cisplatin or etoposide, MTT, H1299. The class given is cell-based, human. The source says: It is well established that radiotherapy and most current forms of chemotherapy cause extensive genetic damage and induction of the p53-dependent apoptotic pathway, which determines the important role of this tumor suppressor protein in cancer therapy. HDM2, on the other hand, as a transcriptional product and negative regulator pf p53, would destabilise p53 and diminish its pro-apoptotic function. Inhibitors of the p53-HDM2 negative feedback loop (e.g. compounds disrupting the p53-HDM2 complex) are expected to synergise with cytotoxic agents for induction of p53 and subsequent apoptosis. […] Both chemotherapeutic agents were used in the concentration range of 100-0.19 μM.

For assay [6], the system named is key proteins in the HDM2 pathway. In words: SDS-PAGE and immunoblotting of key proteins in the HDM2 pathway. The class given is cell-based, human. The text has this: Equal amounts of cell lysate were separated by SDS-PAGE and analysed by immunoblotting using the indicated antibodies. An estimation of the extent of cell rounding is indicated above each lane. […] (B) The effect of compound 2 on the levels of the cell cycle proteins in AGS cells (wild-type 53). […] Equal amounts of cell lysate were separated by SDS-PAGE and analysed by immunoblotting using the indicated antibodies. An estimation of the extent of cell rounding is indicated above each lane. (C) The effect of negative control compound (refer Example 10), compound 2, cisplatin, and anisomycin on the levels of key proteins in MCF7 cells. […] Cisplatinum and anisomycin (a transcription inhibitor) treatments were with 50 μM or 37 μM, respectively. Cells were harvested at various time points; afterwards lysates were prepared and separated by SDS-PAGE and analysed by immunoblotting. The proteins detected are indicated. The extent of rounded or floating cells and the percentage viable cells were assessed. […] Equal amounts of cell lysate were separated by SDS-PAGE and analysed by immunoblotting using a range of antibodies. An estimation of the extent of cell rounding is indicated above each lane. […] SJSA1 cells were treated with 5 times [IC50] of compound 2 and collected at the indicated time points. Equal amounts of cell lysate were separated by SDS-PAGE and analysed by immunoblotting using a range of antibodies. An estimation of the extent of cell rounding is indicated above each lane.
Many types of cellular stress converge on the p53 pathway and induce its activity. […] The biological effect of bisarylsufonamides on cellular level was studies using representative compounds (mainly compound 2) and number of cell lines with different HDM2 and p53 status. These were overexpressing Hdm2 (SJSA1—osteosarcoma), wild type p53 and normal levels of HDM2 (AGS—gastric adenocarcinoma, MCF7—breast adenocarcinoma), or p53 null, low levels of HDM2 (H1299—large cell lung carcinoma).
Cells were lysed and equal amounts were analysed by SDS-polyacrylamide gel electrophoresis (SDS-PAGE) and immunoblotting.

The mark [7] stands for this setting: after 3-h treatment with test compounds, read-out: IC50 E2F reporter, Non-synchronised cells.
[8] abbreviates: NCI-H1299, 72 h, H1299, Large cell lung carcinoma, Table 2, read-out: Anti-proliferative activity, 72-h MTT IC50.
[9] abbreviates: NCI-H1299, 72-h MTT, Table 1, read-out: IC50 Anti-proliferative effect on cell line H 1299.
Where [10] appears, read: after 3-h treatment, synchronisation with 0.3 mM mimosine for 24 h, followed by wash-out, read-out: IC50 E2F reporter, Synchronised cells.

As for `O=[N+]([O-])c1cc(S(=O)(=O)Nc2ccc(Cl)cc2)sc1Cl` [Compound 2, 5-Chloro-4-nitrothiophene-2-sulfonic acid (4-chlorophenyl)-amide], the IC50 in assay [1] (setting [7]) came to 23.2 ± 4 µM; in the assay with H1299 [2] (setting [8]), 4.4 µM; with H1299 [2] (setting [9]), 5.1 ± 0.7 µM; in the assay on H1299 [2] (NCI-H1299, H1299, Example 9, read-out: anti-proliferative IC50 concentration determined for each cell line), 5 µM; in assay [3] it was 21 ± 3.1 µM; in [4], 5.7 ± 3.9 µM. Moreover, the IC50 in the assay on SK-N-MC worked out at 3 µM; in the assay with NaCat it was 9.3 µM; with H1299 [5] (Homo sapiens, NCI-H1299, MTT, 72 hours, Table 5, read-out: IC50, agent alone), 5.1 µM. Also, in the assay with MCF7 or H1299 cells, the cell cycle arrest result is reported as “no detectable arrest at any phase of the cell cycle”. Moreover, in the assay on MCF7 or H1299 cells, the “sub-G1 cells, indicative of apoptosis” value is on record as “induced sub-G1 cells”. Further, the “IC50 of etoposide, fold lower in cells pre-treated with 2” value in the assay on H1299 [5] (2 added 6 hours before etoposide) is on record as 25 fold. In the assay with H1299 [5] (2 added prior to the treatment with cisplatin), the “potency increase of cisplatin” value is reported as 16 fold. Further, the “HDM2 and E2F-1 protein levels” value in assay [6] (AGS, H1299, MCF7 or SJSA1 cells, five times the anti-proliferative IC50) is “rapid reduction in HDM2 and E2F-1 levels”. In assay [6] (MCF7 cells), the JNK phosphorylation result is “transient induction in JNK phosphorylation”. The “p38 MAPK pathway induction” value in assay [6] (MCF7 cells) is reported as “no clear induction of the p38 MAPK pathway”. For the same compound, the “p53 level and p53 phosphorylation at serine 15” value in assay [6] (compound 2: AGS, H1299, MCF7 or SJSA1 cells, etoposide or cisplatinum: AGS or MCF7 cells) is listed as “no induction of p53 nor p53 phosphorylation at serine 15”. The “PARP cleavage / PARP levels” value in [6] (five times IC50, 85-kDa cleavage product marker for apoptosis) is reported as “very rapid in H1299 cells but less so in AGS, MCF7 or SJSA1 cells”.
In the case of `O=[N+]([O-])c1cc(S(=O)(=O)Nc2ccc(F)cc2)sc1Cl` [Compound 3, 5-Chloro-4-nitrothiophene-2-sulfonic acid (4-fluorophenyl)amide], the IC50 in [1] (setting [7]) came to 28.8 ± 2.3 µM; in assay [1] (setting [10]), 69 ± 30 µM; in the assay with H1299 [2] (setting [8]) it was 5.2 µM; with H1299 [2] (setting [9]), 5.7 ± 0.4 µM; in assay [3], 18.7 ± 3.1 µM; in assay [4] it was 6.9 ± 5 µM. Further, the IC50 with SK-N-MC was found to be 3.8 µM; in the assay on NaCat it was 10.5 µM.
With `O=[N+]([O-])c1cc(S(=O)(=O)Nc2ccc(C(F)(F)F)cc2)sc1Cl` [Compound 6, 5-Chloro-4-nitrothiophene-2-sulfonic acid (4-trifluoromethylphenyl)amide], the IC50 in assay [1] (setting [7]) was 37.5 ± 12.9 µM; in assay [1] (setting [10]) it was 39 µM; with H1299 [2] (setting [8]), 4.9 µM; with H1299 [2] (setting [9]) it was 8.1 ± 1.3 µM; in assay [3] it was 27.1 ± 4.9 µM; in [4], 8.4 ± 5.1 µM. For the same compound, the IC50 in the assay on SK-N-MC turned out to be 2.9 µM; in the assay with NaCat, 10.6 µM.
